# From publication PMC6416464 (Drug Metabolism Letters, 2018)
# Like-named read-outs stand apart in the source and are kept apart here.
# Key:
# [1] = Metabolic stability, incubation with human liver microsomes; conditions: 1 µM test compound, 0.5 mg/mL protein
# CYP3A4 [2] = target: T1, CYP3A4 (Homo sapiens, UniProt P08684); assay: in vitro; conditions: microsomes, pH 7.4
# CYP2C9 = CYP2C9 (Homo sapiens, UniProt P11712); assay: CYP inhibition in human liver microsomes, CYP2C9; conditions: HLM; for % Inhibition of Control Activity CYP2C9: NI: No Inhibitin
# [3] = cited from earlier work
# [4] = Metabolic stability, incubation with human liver cytosol; type: in vitro ADME; conditions: 1 µM test compound, 1 mg/mL protein
# CYP1A2 = target: T2, CYP1A2 (Homo sapiens, UniProt P05177); assay: CYP inhibition in human liver microsomes, CYP1A2; conditions: HLM; for % Inhibition of Control Activity CYP1A2: NI: No Inhibitin
# T2 sequence (P05177 1-516): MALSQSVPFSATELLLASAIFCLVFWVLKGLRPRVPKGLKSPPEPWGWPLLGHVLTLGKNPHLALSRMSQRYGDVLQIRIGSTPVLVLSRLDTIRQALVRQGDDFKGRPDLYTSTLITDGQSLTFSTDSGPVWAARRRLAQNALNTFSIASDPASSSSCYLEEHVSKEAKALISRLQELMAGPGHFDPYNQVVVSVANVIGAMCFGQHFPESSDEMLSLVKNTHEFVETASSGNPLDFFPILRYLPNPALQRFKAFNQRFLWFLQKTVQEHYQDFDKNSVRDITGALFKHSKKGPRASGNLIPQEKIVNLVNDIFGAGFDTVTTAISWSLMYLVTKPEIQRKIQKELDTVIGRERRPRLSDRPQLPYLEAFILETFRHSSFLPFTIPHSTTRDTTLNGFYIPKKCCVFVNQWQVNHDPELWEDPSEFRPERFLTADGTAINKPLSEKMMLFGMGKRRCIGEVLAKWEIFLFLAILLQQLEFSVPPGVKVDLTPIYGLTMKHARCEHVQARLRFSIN
# CYP2C8 = target: T3, CYP2C8 (Homo sapiens, UniProt P10632); assay: CYP inhibition in human liver microsomes, CYP2C8; conditions: for inhibition at 2 µM / inhibition at 10 µM: human, human liver microsomes, pH 7.4, probe paclitaxel; for % Inhibition of Control Activity CYP2C8: NI: No Inhibitin
# T3 sequence (P10632 1-490): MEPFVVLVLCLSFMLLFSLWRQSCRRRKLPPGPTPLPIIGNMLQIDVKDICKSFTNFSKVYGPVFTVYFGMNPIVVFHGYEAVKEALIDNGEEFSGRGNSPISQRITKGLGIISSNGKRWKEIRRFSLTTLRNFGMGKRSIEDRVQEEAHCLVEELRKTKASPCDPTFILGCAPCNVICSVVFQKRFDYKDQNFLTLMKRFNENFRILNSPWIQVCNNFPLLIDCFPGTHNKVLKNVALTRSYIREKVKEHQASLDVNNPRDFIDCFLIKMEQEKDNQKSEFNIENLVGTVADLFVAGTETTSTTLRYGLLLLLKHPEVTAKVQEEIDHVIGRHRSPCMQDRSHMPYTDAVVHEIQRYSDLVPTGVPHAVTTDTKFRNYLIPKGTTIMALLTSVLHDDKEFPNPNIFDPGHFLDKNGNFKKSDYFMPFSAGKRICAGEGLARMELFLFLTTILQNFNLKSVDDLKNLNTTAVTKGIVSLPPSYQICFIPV
# CYP3A4 [5] = target: T1, CYP3A4; assay: in vitro; conditions: microsomes, pH 7.4, % Inhibition of Control Activity CYP3A4 (substrate, testosterone)
# CYP3A4 [6] = target: T1, CYP3A4; conditions: microsomes
# rCYP2C8 = target: T4, rCYP2C8 (Homo sapiens, UniProt P10632); assay: Metabolic stability / reaction phenotyping with recombinant human CYP2C8; conditions: for % Metabolized at 30 min Incubation with Human Liver Fractions/Enzymes rCYP2C8: 1 µM test compound, 100 pmol/mL
# T4 sequence (P10632 1-490): T3 sequence (P10632 1-490)
# rCYP2D6 = rCYP2D6 (Homo sapiens, UniProt P10635); assay: Metabolic stability / reaction phenotyping with recombinant human CYP2D6; conditions: for % Metabolized at 30 min Incubation with Human Liver Fractions/Enzymes rCYP2D6: 1 µM test compound, 100 pmol/mL
# CYP2C19 = CYP2C19 (Homo sapiens, UniProt P33261); assay: CYP inhibition in human liver microsomes, CYP2C19; conditions: HLM; for % Inhibition of Control Activity CYP2C19: NI: No Inhibitin
# rCYP2C9 = rCYP2C9 (Homo sapiens, UniProt P11712); assay: Metabolic stability / reaction phenotyping with recombinant human CYP2C9; conditions: for % Metabolized at 30 min Incubation with Human Liver Fractions/Enzymes rCYP2C9: 1 µM test compound, 100 pmol/mL
# rCYP2C19 = rCYP2C19 (Homo sapiens, UniProt P33261); assay: Metabolic stability / reaction phenotyping with recombinant human CYP2C19; conditions: for % Metabolized at 30 min Incubation with Human Liver Fractions/Enzymes rCYP2C19: 1 µM test compound, 100 pmol/mL
# rCYP1A2 = target: T5, rCYP1A2 (Homo sapiens, UniProt P05177); assay: Metabolic stability / reaction phenotyping with recombinant human CYP1A2; conditions: for % Metabolized at 30 min Incubation with Human Liver Fractions/Enzymes rCYP1A2: 1 µM test compound, 100 pmol/mL
# T5 sequence (P05177 1-516): T2 sequence (P05177 1-516)
# [7] = pulmonary tuberculosis patients; cited from earlier work
# CYP2D6 = CYP2D6 (Homo sapiens, UniProt P10635); assay: CYP inhibition in human liver microsomes, CYP2D6; conditions: HLM, NI: No Inhibitin
# [8] = cited from earlier work; remark: listed apart in the source
# rCYP3A4 = rCYP3A4 (Homo sapiens, UniProt P08684)
# [9] = human, recombinant human CYP2C8, 1 µM, pH 7.4
# [10] = human, recombinant human CYP2D6, 1 µM, pH 7.4
# [11] = human, recombinant human CYP2C9, 1 µM, pH 7.4
# [12] = human, recombinant human CYP2C19, 1 µM, pH 7.4
# [13] = human, recombinant human CYP1A2, 1 µM, pH 7.4
# T1 sequence (P08684 2-503): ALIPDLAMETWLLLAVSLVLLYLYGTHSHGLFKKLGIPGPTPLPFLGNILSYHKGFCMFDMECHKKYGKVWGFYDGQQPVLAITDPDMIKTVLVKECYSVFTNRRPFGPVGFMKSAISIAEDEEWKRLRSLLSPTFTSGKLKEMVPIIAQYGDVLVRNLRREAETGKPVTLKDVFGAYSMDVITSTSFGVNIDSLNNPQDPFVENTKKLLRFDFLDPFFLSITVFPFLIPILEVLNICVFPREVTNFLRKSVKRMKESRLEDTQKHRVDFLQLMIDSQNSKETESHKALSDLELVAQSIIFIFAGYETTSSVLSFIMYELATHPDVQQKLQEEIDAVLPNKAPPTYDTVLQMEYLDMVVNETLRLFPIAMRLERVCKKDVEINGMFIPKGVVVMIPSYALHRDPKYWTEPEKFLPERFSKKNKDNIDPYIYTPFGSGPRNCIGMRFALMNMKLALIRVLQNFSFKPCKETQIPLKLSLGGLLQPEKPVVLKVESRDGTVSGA
# rCYP2D6, sequence (P10635 whole entry): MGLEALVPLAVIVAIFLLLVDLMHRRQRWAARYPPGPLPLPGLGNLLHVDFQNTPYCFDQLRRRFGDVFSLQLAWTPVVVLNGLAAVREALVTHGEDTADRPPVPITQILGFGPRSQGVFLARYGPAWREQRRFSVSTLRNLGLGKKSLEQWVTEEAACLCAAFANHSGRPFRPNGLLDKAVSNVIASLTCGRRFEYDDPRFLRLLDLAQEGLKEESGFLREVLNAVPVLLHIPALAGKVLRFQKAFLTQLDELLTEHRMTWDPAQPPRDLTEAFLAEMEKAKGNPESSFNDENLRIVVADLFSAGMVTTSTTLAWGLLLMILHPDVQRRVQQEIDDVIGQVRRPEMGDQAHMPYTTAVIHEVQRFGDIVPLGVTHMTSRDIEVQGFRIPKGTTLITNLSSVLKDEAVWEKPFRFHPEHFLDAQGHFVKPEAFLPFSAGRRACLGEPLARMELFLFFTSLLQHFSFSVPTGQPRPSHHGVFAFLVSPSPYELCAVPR
# rCYP3A4, sequence (P08684 whole entry): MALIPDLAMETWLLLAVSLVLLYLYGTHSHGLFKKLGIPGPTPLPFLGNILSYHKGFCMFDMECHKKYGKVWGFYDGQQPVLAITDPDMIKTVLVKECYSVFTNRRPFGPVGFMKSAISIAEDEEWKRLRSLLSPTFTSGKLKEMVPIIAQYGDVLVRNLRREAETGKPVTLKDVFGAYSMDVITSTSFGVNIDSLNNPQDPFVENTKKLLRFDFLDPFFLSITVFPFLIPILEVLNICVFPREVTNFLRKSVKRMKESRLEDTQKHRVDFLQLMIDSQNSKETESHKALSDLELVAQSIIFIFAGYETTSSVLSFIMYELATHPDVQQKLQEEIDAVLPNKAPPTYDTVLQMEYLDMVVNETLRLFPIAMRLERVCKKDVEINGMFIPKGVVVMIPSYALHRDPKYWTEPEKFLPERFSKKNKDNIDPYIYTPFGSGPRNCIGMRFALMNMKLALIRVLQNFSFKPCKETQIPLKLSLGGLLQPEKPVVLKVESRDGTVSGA
# rCYP2C19, sequence (P33261 whole entry): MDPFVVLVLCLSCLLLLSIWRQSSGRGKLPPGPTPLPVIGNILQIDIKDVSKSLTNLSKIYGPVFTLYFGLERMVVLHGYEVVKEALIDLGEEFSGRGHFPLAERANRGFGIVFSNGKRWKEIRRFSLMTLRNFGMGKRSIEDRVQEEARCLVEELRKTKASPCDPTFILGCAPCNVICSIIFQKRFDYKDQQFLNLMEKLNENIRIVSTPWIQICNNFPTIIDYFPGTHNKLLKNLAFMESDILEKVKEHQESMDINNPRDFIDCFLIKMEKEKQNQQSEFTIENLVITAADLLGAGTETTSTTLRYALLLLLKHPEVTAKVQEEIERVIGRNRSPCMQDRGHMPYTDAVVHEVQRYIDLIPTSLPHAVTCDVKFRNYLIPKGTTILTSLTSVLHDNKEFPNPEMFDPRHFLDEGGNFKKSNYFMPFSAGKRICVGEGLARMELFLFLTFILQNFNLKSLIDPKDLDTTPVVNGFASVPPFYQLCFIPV
# CYP2C19, sequence (P33261 whole entry): as above
# CYP2C9, sequence (P11712 whole entry): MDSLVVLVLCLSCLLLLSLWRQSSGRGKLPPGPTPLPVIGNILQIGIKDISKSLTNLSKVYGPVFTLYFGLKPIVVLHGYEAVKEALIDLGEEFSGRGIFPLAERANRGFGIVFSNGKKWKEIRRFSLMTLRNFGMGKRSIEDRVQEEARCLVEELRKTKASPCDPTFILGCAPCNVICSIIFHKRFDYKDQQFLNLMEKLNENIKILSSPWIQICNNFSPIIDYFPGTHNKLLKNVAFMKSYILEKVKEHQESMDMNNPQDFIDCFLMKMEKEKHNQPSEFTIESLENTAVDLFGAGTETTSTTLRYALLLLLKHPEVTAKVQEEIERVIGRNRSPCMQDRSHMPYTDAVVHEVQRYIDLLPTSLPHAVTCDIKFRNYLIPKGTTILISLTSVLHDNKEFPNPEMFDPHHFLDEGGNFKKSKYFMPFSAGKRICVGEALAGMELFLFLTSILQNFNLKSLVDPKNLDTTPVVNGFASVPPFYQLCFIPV
# rCYP2C9, sequence (P11712 whole entry): as above
# CYP2D6, sequence (P10635 whole entry): as the sequence (P10635 whole entry) above
compound,measurement,setting,value
"CCC[S+]([O-])c1ccc2[nH]c(NC(=O)OC)nc2c1 (stereo not drawn) [Albendazole sulfoxide, albendazole sulfoxide]",% Metabolized at 30 min Incubation with Human Liver Fractions/Enzymes HLM,[1],4.23%
same,inhibition at 2 µM,CYP3A4 [2],< 0%
same,inhibition at 10 µM,CYP3A4 [2],< 0%
same,% Inhibition of Control Activity CYP2C9,"CYP2C9; inhibitor 10 µM, 10 µM",9.49%
same,increase of AUC,"[3]; with transport inhibitors such as verapamil, quinidine and ivermectin",> 50%
same,% Metabolized at 30 min Incubation with Human Liver Fractions/Enzymes Cytosol,[4],0.20%
same,% Inhibition of Control Activity CYP1A2,"CYP1A2; inhibitor 10 µM, 10 µM",22.20%
same,inhibition at 2 µM,CYP2C8,< 0%
same,inhibition at 10 µM,CYP2C8,< 0%
same,inhibition at 2 µM,CYP3A4 [5],2.48%
same,"% Inhibition of Control Activity CYP3A4 (substrate, testosterone)","CYP3A4 [6]; human, 10 µM, pH 7.4",4.82%
"CCCSc1ccc2nc(NC(=O)OC)[nH]c2c1 [Albendazole, albendazole, reference compound]",% Metabolized at 30 min Incubation with Human Liver Fractions/Enzymes HLM,[1],50.06%
same,% Metabolized at 30 min Incubation with Human Liver Fractions/Enzymes rCYP2C8,rCYP2C8,2.43%
same,"% Contribution of CYP Enzymes (fmCYP) in Metabolism, CYP2C8",rCYP2C8; [9],0.50%
same,"Predicted Microsomal Clint, CYP2C8",rCYP2C8; [9],0.525 µL/min/mg Protein
same,"rCYP Clint, CYP2C8",rCYP2C8; [9],0.008 µL/min/pmol
same,% Metabolized at 30 min Incubation with Human Liver Fractions/Enzymes rCYP2D6,rCYP2D6,64.92%
same,"% Contribution of CYP Enzymes (fmCYP) in Metabolism, CYP2D6",rCYP2D6; [10],3.33%
same,"Predicted Microsomal Clint, CYP2D6",rCYP2D6; [10],3.491 µL/min/mg Protein
same,"rCYP Clint, CYP2D6",rCYP2D6; [10],0.349 µL/min/pmol
same,% Inhibition of Control Activity CYP2C19,"CYP2C19; inhibitor 10 µM, 10 µM",4.20%
same,% Inhibition of Control Activity CYP2C9,"CYP2C9; inhibitor 10 µM, 10 µM",12.40%
same,increase of exposure,[3]; with CYP3A4 inhibitor grapefruit juice,3.2 fold
same,% Metabolized at 30 min Incubation with Human Liver Fractions/Enzymes rCYP2C9,rCYP2C9,5.96%
same,"% Contribution of CYP Enzymes (fmCYP) in Metabolism, CYP2C9",rCYP2C9; [11],1.87%
same,"Predicted Microsomal Clint, CYP2C9",rCYP2C9; [11],1.966 µL/min/mg Protein
same,"rCYP Clint, CYP2C9",rCYP2C9; [11],0.020 µL/min/pmol
same,% Metabolized at 30 min Incubation with Human Liver Fractions/Enzymes Cytosol,[4],0.00%
same,% Metabolized at 30 min Incubation with Human Liver Fractions/Enzymes rCYP2C19,rCYP2C19,95.76%
same,"% Contribution of CYP Enzymes (fmCYP) in Metabolism, CYP2C19",rCYP2C19; [12],19.06%
same,"Predicted Microsomal Clint, CYP2C19",rCYP2C19; [12],20.011 µL/min/mg Protein
same,"rCYP Clint, CYP2C19",rCYP2C19; [12],1.053 µL/min/pmol
same,inhibition at 2 µM,CYP2C8,< 0%
same,inhibition at 10 µM,CYP2C8,< 0%
same,% Metabolized at 30 min Incubation with Human Liver Fractions/Enzymes rCYP1A2,rCYP1A2,98.92%
same,"% Contribution of CYP Enzymes (fmCYP) in Metabolism, CYP1A2",rCYP1A2; [13],74.79%
same,"Predicted Microsomal Clint, CYP1A2",rCYP1A2; [13],78.510 µL/min/mg Protein
same,"rCYP Clint, CYP1A2",rCYP1A2; [13],1.510 µL/min/pmol
CC(=O)NC[C@H]1CN(c2ccc(N3CC[S+]([O-])CC3)c(F)c2)C(=O)O1 [sutezolid sulfoxide],metabolite to parent (sutezolid sulfoxide/ sutezolid) median concentration ratio,[7],7.1
triclabendazole sulfoxide,% Metabolized at 30 min Incubation with Human Liver Fractions/Enzymes HLM,[1],18.08%
same,% Metabolized at 30 min Incubation with Human Liver Fractions/Enzymes rCYP2C8,rCYP2C8,0.00%
same,"Predicted Microsomal Clint, CYP2D6",rCYP2D6,0.125 µL/min/mg Protein
same,% Metabolized at 30 min Incubation with Human Liver Fractions/Enzymes rCYP2D6,rCYP2D6,3.68%
same,"rCYP Clint, CYP2D6","rCYP2D6; human, recombinant enzyme",0.012 µL/min/pmol
same,"% Contribution of CYP Enzymes (fmCYP) in Metabolism, CYP2D6",rCYP2D6; recombinant enzyme,0.18%
same,% Inhibition of Control Activity CYP2C19,CYP2C19; inhibitor 2 µM,84.33%
same,% Inhibition of Control Activity CYP2C19,CYP2C19; inhibitor 10 µM,88.87%
same,IC50,CYP2C19; read-out: IC50 CYP 2C19,0.22 µM
same,% Inhibition of Control Activity CYP2C9,CYP2C9; inhibitor 2 µM,49.60%
same,% Inhibition of Control Activity CYP2C9,CYP2C9; inhibitor 10 µM,86.62%
same,IC50,CYP2C9; read-out: IC50 CYP 2C9,1.95 µM
same,"Predicted Microsomal Clint, CYP2C9",rCYP2C9,57.057 µL/min/mg Protein
same,% Metabolized at 30 min Incubation with Human Liver Fractions/Enzymes rCYP2C9,rCYP2C9,83.19%
same,"rCYP Clint, CYP2C9","rCYP2C9; human, recombinant enzyme",0.594 µL/min/pmol
same,"% Contribution of CYP Enzymes (fmCYP) in Metabolism, CYP2C9",rCYP2C9; recombinant enzyme,82.43%
same,% Metabolized at 30 min Incubation with Human Liver Fractions/Enzymes Cytosol,[4],0.00%
same,% Inhibition of Control Activity CYP2D6,CYP2D6; inhibitor 2 µM,1.63%
same,% Inhibition of Control Activity CYP2D6,CYP2D6; inhibitor 10 µM,3.13%
same,Cmax,[8]; human patients at therapeutic doses of triclabendazole,38.6 µM
same,half-life,[8]; humans,11 to 12 h
same,peak concentration,"[8]; humans, standard dose of triclabendazole of 10 mg/kg",38.6 µM
same,% Inhibition of Control Activity CYP1A2,CYP1A2; inhibitor 2 µM,39.42%
same,% Inhibition of Control Activity CYP1A2,CYP1A2; inhibitor 10 µM,69.42%
same,IC50,CYP1A2; read-out: IC50 CYP 1A2,4.19 µM
same,"Predicted Microsomal Clint, CYP2C19",rCYP2C19,6.442 µL/min/mg Protein
same,% Metabolized at 30 min Incubation with Human Liver Fractions/Enzymes rCYP2C19,rCYP2C19,63.84%
same,"rCYP Clint, CYP2C19","rCYP2C19; human, recombinant enzyme",0.339 µL/min/pmol
same,"% Contribution of CYP Enzymes (fmCYP) in Metabolism, CYP2C19",rCYP2C19; recombinant enzyme,9.31%
same,% Inhibition of Control Activity CYP2C8,"CYP2C8; inhibitor 2 µM, HLM",11.20%
same,% Inhibition of Control Activity CYP2C8,"CYP2C8; inhibitor 10 µM, HLM",53.67%
same,IC50,"CYP2C8; read-out: IC50 CYP 2C8, HLM",8.95 µM
same,"% Inhibition of Control Activity CYP3A4 (substrate, testosterone)",CYP3A4 [6]; 2 µM,0.18%
same,"% Inhibition of Control Activity CYP3A4 (substrate, testosterone)",CYP3A4 [6]; 10 µM,14.43%
same,"Predicted Microsomal Clint, CYP1A2",rCYP1A2,3.968 µL/min/mg Protein
same,% Metabolized at 30 min Incubation with Human Liver Fractions/Enzymes rCYP1A2,rCYP1A2,20.46%
same,"rCYP Clint, CYP1A2","rCYP1A2; human, recombinant enzyme",0.076 µL/min/pmol
same,"% Contribution of CYP Enzymes (fmCYP) in Metabolism, CYP1A2",rCYP1A2; recombinant enzyme,5.73%
same,"Predicted Microsomal Clint, CYP3A4",rCYP3A4,1.626 µL/min/mg Protein
same,% Metabolized at 30 min Incubation with Human Liver Fractions/Enzymes rCYP3A4,"rCYP3A4; 1 µM test compound, 100 pmol/mL, 30 min",4.30%
same,"rCYP Clint, CYP3A4","rCYP3A4; human, recombinant enzyme",0.015 µL/min/pmol
same,"% Contribution of CYP Enzymes (fmCYP) in Metabolism, CYP3A4",rCYP3A4; recombinant enzyme,2.35%
